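Each compound was tested at five concentrations against cells in 96-well plates for 48 hours. GI50: concentration for 50% inhibition of growth. TGI: concentration producing complete growth inhibition.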 Where a SMILES comes first, the peptide text is derived from it. The star is where a group is joined. Boc = CC(C)(C)OC(=O)*
Legend:
Experiment in all cases: NCI anticancer screen, dose series, 48 h
[1] = tested on: CAKI-1 renal
[2] = tested on: HL-60(TB) leukemia
[3] = tested on: MDA-MB-231 breast
[4] = tested on: MDA-MB-435
[5] = tested on: SF-539 CNS
[6] = tested on: SNB-19 CNS
[7] = tested on: SW-620 colon
[8] = tested on: T-47D breast
[9] = tested on: U251 CNS
[10] = tested on: UO-31 renal

Compound | TGI [1] | TGI [2] | TGI [3] | TGI [4] | TGI [5] | TGI [6] | TGI [7] | TGI [8] | TGI [9] | TGI [10] | GI50 [2]
O=c1[nH]c2cc3cccnc3c(Cl)c2nc1C(F)(F)F | 65.4 µM | > 100 µM | > 100 µM | > 100 µM | > 100 µM | > 100 µM | > 100 µM | 88.1 µM | > 100 µM | > 100 µM | 
CCOC(=O)C1=C(C)C(C(=O)OC)/C(=C/c2cccc3cccnc23)C1=O (configuration not stated) | > 10 µM | > 10 µM | > 10 µM | > 10 µM | > 10 µM | > 10 µM | > 10 µM | > 10 µM | > 10 µM | > 10 µM | 
NCCNCCCCCCNC(=O)c1cccc2cc3ccccc3nc12 | 18.5 µM | 3.51 µM | 7.13 µM | 11.9 µM | 3.88 µM | 9.58 µM | 4.78 µM | 21.5 µM | 4.15 µM | 17.2 µM | 
CCOP(=O)(OCC)/C(=C\N1C(=O)CC(=O)NC1=S)C(=O)OC | > 100 µM | > 100 µM | > 100 µM | > 100 µM | > 100 µM | > 100 µM | > 100 µM | > 100 µM | > 100 µM | > 100 µM | 
CCOC(=O)CCc1c(C(=O)OCC)[nH]c(/C=C2\NC(=O)C(C)=C2CC)c1C | 78.7 µM | > 100 µM | 52.6 µM | > 100 µM | 69.6 µM |  |  | 26 µM | 33.9 µM | > 100 µM | 
COC(=O)c1ccc(CCc2cc(O)ccc2O)cc1 | 12.9 µM | 5.96 µM | 29.9 µM | 21.7 µM | 19.6 µM | > 62.7 µM | 29.7 µM | 7.91 µM | 33.2 µM | 7.04 µM | 
Cc1ccc(-n2c(O)c3c(N)n[nH]c3c(C#N)c2=O)cc1 | > 100 µM | > 100 µM | > 100 µM | > 100 µM | > 100 µM | > 100 µM | > 100 µM | > 100 µM | > 100 µM | > 100 µM | 
c1cc(C[S+]2CCCC2)ccc1C[S+]1CCCC1 | > 100 µM | > 100 µM | > 100 µM | > 100 µM | > 100 µM | > 100 µM | > 100 µM | > 100 µM | > 100 µM | > 100 µM | 
CC(C)[C@H]1NC(=O)[C@H]2N=C(O[C@@H]2C)[C@@H]2CCCN2C(=O)[C@H](Cc2ccccc2)NC(=O)[C@@H]2CSC(=N2)[C@@H](Cc2ccccc2)NC(=O)[C@@H]2CSC1=N2 | > 100 µM | > 100 µM | > 100 µM | > 100 µM | > 100 µM | > 100 µM | > 100 µM | > 100 µM | > 100 µM | > 100 µM | 
C1#Cc2ccccc2OCCOc2ccccc2C#Cc2ccccc2OCCOc2ccccc21 | 40.7 µM | > 100 µM | 54.9 µM | > 100 µM |  | > 100 µM | > 100 µM | > 100 µM | 28.1 µM | > 100 µM | 
N/N=C1/C(=N/O)CCc2nonc21 | > 100 µM | > 100 µM | > 100 µM | > 100 µM | > 100 µM | > 100 µM | > 100 µM | > 100 µM | > 100 µM | > 100 µM | 
N#Cc1c(N2CCCC2)ncn(Cc2ccccc2)c1=S | > 100 µM | > 100 µM | > 100 µM | > 100 µM | > 100 µM | > 100 µM | > 100 µM | > 100 µM | > 100 µM | > 100 µM | 
O=C1OC2(C(F)(F)F)Oc3ccccc3CN2C12CCCCC2 (configuration not stated) | 56.1 µM | 40.5 µM | 59.5 µM | > 100 µM | > 100 µM | > 100 µM | > 100 µM | > 100 µM | 84.4 µM | 84.3 µM | 
OCC(O)C1OC2CC1Nc1ccccc1N2 (configuration not stated) | > 100 µM | > 100 µM | > 100 µM | > 100 µM | > 100 µM | > 100 µM | > 100 µM | > 100 µM | > 100 µM | > 100 µM | 
S=C1C(=Nc2ccccc2)N(c2ccccc2)/C(=N\c2ccccn2)N1c1ccccc1 | 29 µM | > 100 µM | 31.6 µM | 28.5 µM | 20.9 µM | 29.9 µM | 27.9 µM | 41.5 µM | 29.5 µM | 26.1 µM | 
Cc1cc(N=Cc2c(CO)cnc(C)c2O)c(N=Cc2c(CO)cnc(C)c2O)cc1C.[Zn] | > 100 µM | > 100 µM | > 100 µM | > 100 µM | > 100 µM | > 100 µM | > 100 µM | > 100 µM | > 100 µM | > 100 µM | > 100 µM

Compound | TGI [1] | TGI [2] | TGI [3] | TGI [4] | TGI [5] | TGI [6] | TGI [7] | TGI [8] | TGI [9] | TGI [10] | GI50 [2]
O=c1c2ccccc2n2nnc3ccc(NCCCNCCNCCCNc4ccc5nnn6c7ccccc7c(=O)c4c56)c1c32 | 12.8 µM | 23.5 µM | 7.37 µM | > 50 µM | 8.46 µM | 35.3 µM | > 22.6 µM | > 50 µM |  | 19.5 µM | 
N#CC(C#N)=Cc1c(O)ccc2ccccc12 | 29.1 µM | 15.7 µM | 30.4 µM | 30 µM | 29.1 µM | 30.5 µM | 34.5 µM | 46.4 µM | 32.5 µM | 28.5 µM | 
COc1ccc(/C=C2\CC3C4CC=C5C[C@@H](O)CC[C@]5(C)C4CC[C@]3(C)\C2=N\O)cc1OC (some centres not stated) | > 100 µM | > 100 µM | > 100 µM | > 100 µM | > 100 µM | > 100 µM | > 100 µM | > 100 µM | > 100 µM | 9.97 µM | 
O=C1C=C2CO[C@H]3OC[C@H](O)[C@@H]1[C@@H]23 | 89 µM | 76.1 µM | > 100 µM | > 100 µM |  | > 100 µM | > 100 µM | 67.3 µM | 63.6 µM | > 100 µM | 
CCCC(CC)c1c(O)c(O)c(C(CC)CCC)c(C(CC)CCC)c1C(CC)CCC (configuration not stated) | > 10 µM | > 10 µM | > 10 µM | > 10 µM | > 10 µM | > 10 µM | > 10 µM | > 10 µM | > 10 µM | > 10 µM | 
CC(NC1=NCCO1)c1cccc([N+](=O)[O-])c1 (configuration not stated) | > 100 µM | > 100 µM | > 100 µM | > 100 µM | > 100 µM | > 100 µM | > 100 µM | > 100 µM | > 100 µM | > 100 µM | 
COCN1CCN=c2c1c1c3c(c4ccccc4n23)CCC1 | > 100 µM | > 100 µM | > 100 µM | > 100 µM | > 100 µM | > 100 µM | > 100 µM | > 100 µM | > 100 µM | > 100 µM | 
Cc1nccn1S(=O)(=O)c1ccc(Br)cc1Br | > 100 µM | 51.5 µM | 48.5 µM | 46 µM | 41.4 µM | 90.3 µM | > 100 µM | > 100 µM | > 100 µM | 68.7 µM | 
Nc1ccc(-c2nc3cc(F)ccc3s2)cc1I | 72.5 µM | > 100 µM | 30.4 µM | > 100 µM | 29.8 µM | 54.9 µM | > 100 µM | 97.2 µM | 26.8 µM | > 65.2 µM | 
Cc1ccc(C)c(COCCOCn2cc(Br)c(N)nc2=O)c1 | > 100 µM | > 100 µM | > 100 µM | > 100 µM | > 100 µM | > 100 µM | > 100 µM | > 100 µM | > 100 µM | > 100 µM | 
COC(=O)C(Cc1c[nH]c2ccccc12)NC(=O)C(Cc1c[nH]c2ccccc12)NC(=O)C(Cc1c[nH]c2ccccc12)NC(=O)C(Cc1c[nH]c2ccccc12)NC(=O)OC(C)(C)C (configuration not stated) (Boc-WWWW-OMe; configuration not given here) | > 100 µM | 43.4 µM | > 100 µM | > 100 µM |  | > 100 µM | 62.8 µM | > 100 µM | 34.6 µM | > 100 µM | 
C=CCN(c1cc(OCc2ccccc2)c(NC(C)=O)cc1[N+](=O)[O-])S(C)(=O)=O | > 100 µM | > 100 µM | 29.5 µM | > 100 µM | 31.8 µM | 36.1 µM | > 100 µM | > 100 µM |  | > 100 µM | 
COc1cc(/C=C2\N=C(c3ccccc3)N(/N=C3\C(=O)Nc4ccccc43)C2=O)cc(OC)c1OC | > 100 µM | > 100 µM | > 100 µM | > 100 µM | > 100 µM | > 100 µM | > 100 µM | > 100 µM | > 100 µM | > 100 µM | 
C=C1C(=O)O[C@H]2C/C(C)=C/CC/C(C)=C/CC[C@@](C)(O)[C@@H](I)C[C@@H]12 | 22.4 µM | 14.6 µM | 26.9 µM | 23.2 µM | 12.3 µM | 30 µM | 19.8 µM | 32.1 µM | 33.4 µM | 24.5 µM | 
CN(C)CCOC(=O)c1ccc(N)cc1 | > 100 µM | 83.7 µM | 41.1 µM | > 100 µM |  | > 100 µM | > 100 µM | > 100 µM | > 100 µM | > 100 µM | 
CO/C(=N\N=C\c1ccc(Cl)cc1Cl)c1ccncc1 | > 10 µM | > 10 µM | > 10 µM | > 10 µM |  | > 10 µM | > 10 µM | > 10 µM | > 10 µM | > 10 µM | 
